Assay results taken from patent publication US8633212B2, “Inhibitors of beta-secretase” (Vitae Pharmaceuticals, Inc., priority 2009, dated 2014).

Biological target: truncated human beta-secretase (residues 1-458, His6-tagged at the C-terminus) (Homo sapiens (Human), UniProt P56817)
Assay: BACE enzyme assay (fluorescence quench assay, Example 434A)
Format: biochemical
Conditions: not given

Sequence of truncated human beta-secretase (residues 1-458, His6-tagged at the C-terminus) (P56817 22-458): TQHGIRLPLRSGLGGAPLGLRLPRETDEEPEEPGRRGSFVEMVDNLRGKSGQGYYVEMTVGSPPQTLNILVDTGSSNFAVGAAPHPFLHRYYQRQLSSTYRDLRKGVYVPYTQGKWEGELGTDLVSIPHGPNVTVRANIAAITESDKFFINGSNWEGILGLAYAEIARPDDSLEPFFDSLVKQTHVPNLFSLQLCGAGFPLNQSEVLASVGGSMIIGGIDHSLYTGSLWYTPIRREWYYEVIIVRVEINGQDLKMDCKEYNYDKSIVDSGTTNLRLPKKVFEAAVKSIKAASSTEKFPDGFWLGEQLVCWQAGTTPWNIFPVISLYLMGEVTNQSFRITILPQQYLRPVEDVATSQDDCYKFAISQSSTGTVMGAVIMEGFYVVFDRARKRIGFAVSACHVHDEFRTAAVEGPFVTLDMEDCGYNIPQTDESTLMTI

SMILES	IC50 [nM]
CN1OC2(N=C1N)c1cc(C#CC3CC3)ccc1CC21CCC(OC(F)F)CC1 (stereo not drawn) [Compound 99]	2.4

Same assay, conditions: footnote a: protocols described in Example 434A; read-out: IC50

SMILES	IC50 [nM]
Cc1onc2c1CC1(CC2)Cc2ccc(C#CC3CC3)cc2C12N=C(N)N(C)O2 (stereo not drawn) [Compound 468]	16.7
COC1CCC2(CC1)Cc1ccc(C#Cc3ccccc3)cc1C21N=C(N)N(C)O1 (stereo not drawn) [Compound 112]	80.4
CN1OC2(N=C1N)c1cc(-c3cccc(C#N)c3)ccc1CC21CCC(NCC(F)(F)F)CC1 (stereo not drawn) [Compound 97]	3880
CN1OC2(N=C1N)c1cc(-c3cccc(C#N)c3)ccc1CC21Cc2cccc3cccc(c23)C1 (stereo not drawn) [Compound 61]	3260
COC1CCC2(CC1)Cc1ccc(-c3ccnnc3)cc1C21N=C(N)N(C)O1 (stereo not drawn) [Compound 108]	156
CN1OC2(N=C1N)c1cc(Br)ccc1OC21CCc2ccccc2CC1 (stereo not drawn) [Compound 67]	138
COC1CCC2(CC1)Cc1ccc(C3=CC(O)CC3)cc1C21N=C(N)N(C)C1=O (stereo not drawn) [Compound 476]	33.1
CN1C(=O)C2(N=C1N)c1cc(C#CC3CC3)ccc1CC21CCC(O)CC1 (stereo not drawn) [Compound 151]	207
COC1CCC2(CC1)Cc1ccc(C#CC3CC3)cc1C21N=C(N)N(C)C1=O (stereo not drawn) [Compound 76]	2.1
COC1CCC2(CC1)Cc1ccc(C#CC3CC3)cc1[C@@]21N=C(N)N(C)C1=O (stereo partly drawn) [Compound 477]	694
CN1C(=O)C2(N=C1N)c1cc(C#CC3CC3)ccc1CC21CCC(O)CC1 (stereo not drawn) [Compound 150]	3
COC1CCC2(CC1)Cc1ccc(OCC3CC3)cc1C21N=C(N)N(C)O1 (stereo not drawn) [Compound 110]	14.6
COC1CCC2(CC1)Cc1ccc(C#CC(F)(F)F)cc1C21N=C(N)N(C)O1 (stereo not drawn) [Compound 115]	3.7
COC1CCC2(CC1)Cc1ccc(C#CC(C)(C)C)cc1C21N=C(N)N(C)O1 (stereo not drawn) [Compound 113]	24.6
CO[C@H]1CC2(Cc3ccc(-c4cccc(C#N)c4)cc3C23N=C(N)N(C)O3)C[C@H]1OC (stereo partly drawn) [Compound 62]	4110
CO[C@H]1CC[C@@]2(CC1)Cc1ccc(-c3cccc(C#N)c3)cc1C21CC(=O)N(C)C(N)=N1 (stereo partly drawn) [Compound 65]	50000
CN1OC2(N=C1N)c1cc(-c3cccc(C#N)c3)ccc1CC21Cc2ccccc2C1 (stereo not drawn) [Compound 40]	160
COC1CCC2(CC1)Cc1ccc(CCC3CC3)cc1C21N=C(N)N(C)O1 (stereo not drawn) [Compound 117]	17.4
CN1OC2(N=C1N)c1cc(C#CC3CC3)ccc1CC21CCc2ccccc2CC1 (stereo not drawn) [Compound 105]	8.4
COC1CCC2(CC1)Cc1ccc(C#CC3CC3)cc1C21N=C(N)N(Cc2ccccc2)C1=O (stereo not drawn) [Compound 142]	2
CN1OC2(N=C1N)c1cc(Cl)ccc1CC21CCc2ccccc2CC1 (stereo not drawn) [Compound 30]	61.6
CN1OC2(N=C1N)c1cc(-c3ccnnc3)ccc1CC21CCc2ccccc2CC1 (stereo not drawn) [Compound 122]	42.5
Cc1onc2c1CC1(CC2)Cc2ccc(C#CC3CC3)cc2C12N=C(N)N(C)C2=O (stereo not drawn) [Compound 467]	2.8

SMILES	IC50 [nM]
CN1OC2(N=C1N)c1cc(-c3cccc(C#N)c3)ccc1CCC21CCc2ccccc2CC1 (stereo not drawn) [Compound 63]	5050
COC1CCC2(CC1)Cc1ccc(C#CC3CC3)cc1C21N=C(N)NC1=O (stereo not drawn) [Compound 264]	29.2
COC1CCC2(CC1)Cc1ccc(-c3ccc4cc[nH]c4c3)cc1C21N=C(N)N(C)O1 (stereo not drawn) [Compound 37]	126
CN1OC2(N=C1N)c1cc(-c3cccc(C#N)c3)ccc1CC21CCOCC1 (stereo not drawn) [Compound 51, 3-(spiro[spiro[2,3-dihydro-indene-2,1′-(4-oxacyclohexane)]-1,5′-(3-amino-2-methyl-2H-[1,2,4]oxadiazole)]-6-yl)benzonitrile]	466
CCOC1CCC2(CC1)Cc1ccc(-c3cccc(C#N)c3)cc1C21N=C(N)N(C)O1 (stereo not drawn) [Compound 82]	432
COC1CCC2(CC1)Cc1ccc(-c3cc(F)ccc3C)cc1C21N=C(N)N(C)O1 (stereo not drawn) [Compound 32]	74.1
COC1CCC2(CC1)Cc1ccc(-c3cncs3)cc1C21N=C(N)N(C)O1 (stereo not drawn) [Compound 116]	76.7
COc1cncc(-c2ccc3c(c2)C2(N=C(N)N(C)O2)C2(CCC(OC)CC2)C3)n1 (stereo not drawn) [Compound 111]	196
COC1CCC2(CC1)Cc1ccc(C#CC3CCCC3)cc1C21N=C(N)N(C)O1 (stereo not drawn) [Compound 114]	9.7
CN1OC2(N=C1N)c1cc(-c3cccc(C#N)c3)ccc1CC21CCC(NCC(F)(F)F)CC1 (stereo not drawn) [Compound 98]	3320
Cc1onc2c1CC1(CC2)Cc2ccc(-c3cccnc3)cc2C12N=C(N)N(C)O2 (stereo not drawn) [Compound 451]	58.6
CCOC1CCC2(CC1)Cc1ccc(C#CC3CC3)cc1C21N=C(N)N(C)O1 (stereo not drawn) [Compound 24]	21
CN1OC2(CC3(CCOCC3)c3ccc(-c4cccc(C#N)c4)cc32)N=C1N (stereo not drawn) [Compound 69, 3-(spiro[spiro[2,3-dihydro-indene-3,1′-(4-oxacyclohexane)]-1,5′-(3-amino-2-methyl-2H-[1,2,4]oxadiazole)]-6-yl)benzonitrile]	4700
CN1OC2(N=C1N)c1cc(-c3cccc(C#N)c3)ccc1CC21CCC(OC(F)F)CC1 (stereo not drawn) [Compound 100]	4.7
CO[C@H]1CC[C@]2(CC1)Cc1c(F)cccc1C21N=C(N)N(C)C1=O (stereo partly drawn) [Compound 249]	493
Cc1ccc2c(c1)C1(N=C(N)N(C)O1)C1(CCc3ccccc3CC1)C2 (stereo not drawn) [Compound 104]	255
CCN1C(=O)C2(N=C1N)c1cc(C#CC3CC3)ccc1CC21CCC(OC)CC1 (stereo not drawn) [Compound 138]	15.6
COC1CCC2(CC1)Cc1ccc(C#CC3CC3)cc1[C@]21N=C(N)N(C)C1=O (stereo partly drawn) [Compound 478]	2.2
COC1CCC2(CC1)Cc1ccc(-c3cnccn3)cc1C21N=C(N)N(C)O1 (stereo not drawn) [Compound 109]	23.6
CN1OC2(N=C1N)c1cc(-c3cccc(C#N)c3)ccc1CC21CCc2cnncc2CC1 (stereo not drawn) [Compound 456]	877
COC1CCC2(CC1)Cc1ccc(Br)cc1C21N=C(N)N(C)O1 (stereo not drawn) [Compound 95]	137
COC1CCC2(CC1)Oc1ccc(-c3cccc(C#N)c3)cc1C21N=C(N)N(C)O1 (stereo not drawn) [Compound 68]	1780

Same assay, conditions: read-out: IC50

SMILES	IC50 [nM]
COC1CCC2(CC1)Cc1ccc(-c3cccnc3)cc1C21CC(=O)N(C)C(N)=N1 (stereo not drawn) [Compound 59, 2″-amino-1′″-methyl-6-(pyridin-3-yl)-1″H-spiro[spiro[2,3-dihydro-indene-2,1′-(trans-4-methoxycyclohexane)]-1,4′-pyrimidin]-6″(5″H)-one]	1550
CN1OC2(N=C1N)c1cc(-c3cccc(C#N)c3)ccc1CC21CCc2cc(F)ccc2C1 (stereo not drawn) [Compound 43]	178
CO[C@H]1CC[C@]2(CC1)Cc1ccc(-c3cccc(C#N)c3)cc1C21CC(=O)N(C)C(N)=N1 (stereo partly drawn) [Compound 58, 3-(2″-amino-1′″-methyl-6″-oxo-5″,6″-dihydro-1″H-spiro[spiro[2,3-dihydro-indene-2,1′-(trans-4-methoxycyclohexane)]-1,4′-pyrimidine]-6-yl)benzonitrile]	970
CN1OC2(N=C1N)c1cc(-c3cccnn3)ccc1CC21CCc2ccccc2CC1 (stereo not drawn) [Compound 121]	56.2

Biological target: H4 neuroglioma cell line stably expressing APP with the KM-NL Swedish mutation (H4-APPsw); soluble Amyloid Beta 1-40 (Aβ 1-40) (Homo sapiens (Human), UniProt P56817)
Sequence (P56817 46-501 limits assumed, change not shown): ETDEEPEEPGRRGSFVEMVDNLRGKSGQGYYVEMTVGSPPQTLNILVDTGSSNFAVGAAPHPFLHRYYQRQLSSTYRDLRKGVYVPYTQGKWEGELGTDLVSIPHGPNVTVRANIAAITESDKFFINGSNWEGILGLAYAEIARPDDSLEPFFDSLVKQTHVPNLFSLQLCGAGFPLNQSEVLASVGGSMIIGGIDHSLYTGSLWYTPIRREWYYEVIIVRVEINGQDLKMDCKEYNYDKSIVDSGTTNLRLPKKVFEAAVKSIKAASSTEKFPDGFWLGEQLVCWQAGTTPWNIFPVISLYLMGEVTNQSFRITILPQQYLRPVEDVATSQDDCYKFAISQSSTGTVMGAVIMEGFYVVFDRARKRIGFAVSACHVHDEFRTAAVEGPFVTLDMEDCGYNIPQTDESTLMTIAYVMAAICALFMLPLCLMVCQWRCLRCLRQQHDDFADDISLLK
Assay: BACE cell assay: soluble Aβ 1-40 in culture media of H4-APPsw cells (AlphaLISA/ELISA)
Format: cell-based
Conditions: in vitro cell activity; H4-APPsw cells treated overnight, secreted Aβ 1-40 in culture media
Procedure: H4 neuroglioma cell line that stably expresses Amyloid Precursor Protein (APP) containing the KM-NL Swedish mutation (H4-APPsw) was generated. For the assay, cells are treated overnight in the presence of inhibitor and the culture media are subjected to ELISA analysis of soluble Amyloid Beta 1-40 (Aβ 1-40).
Generation and Maintenance of H4-APPsw Cell Line
H4 neuroglioma cell line was cultured in DMEM with 10% FBS and 1% penicillin/streptomycin (Culture Medium) at 37° C., 5% CO2. […] 24 hrs after transfection, the cells were replaced into three new plates (150 mm) in fresh Culture Medium with 250 ug/mL Zeocin. […] The levels of APPsw expression were analyzed by immunoblotting and the production of Aβ 1-40 was detected by ELISA of culture supernatants. The selected clones are maintained in Culture Medium with 250 μg/mL Zeocin and routinely split in 3-4 days to maintain 20-80% confluence.
Final Assay Conditions (96-Well Plate)
Split H4-APPsw cells in Culture Medium and culture overnight such that cells will be ˜80% confluent next morning.
Create Compound Dilution Plate.
After determining the desired final concentration of compound to be tested, create a 500× dilution plate. Add DMSO, but not inhibitor, to each well of Column 1. […] Add compounds of interest at 500× desired final concentration to wells A3-A10. […] Dilute contents of Row A 1:3 in Row B, then continue through Rows C-H.
Add 4 μL 5 mM control compound to Media Plate wells A1-D1 for determination of full inhibition.
With a multichannel pipettor, mix each well of Media Plate several times to insure homogeneity. […] Next, place Medium Plate and Cell Plate in the incubator.
Trypsinize and count H4-APPsw cells. Dilute cells 6×10^5 cells/mL in Culture Medium and remove Cell Plate from incubator. Vortex cells to homogeneity, then using a multichannel repeating pipettor, add 100 μL cell suspension to Cell Plate, adding cells from Row H to Row A. Place Cell Plate in incubator.
Change media in Cell Plate.
After 5 h, check Cell Plate by microscope to insure cells are attached. In culture hood, remove media from Cell Plate using multichannel repeating pipettor. Add 100 μl Culture Medium to each well. Remove Media Plate from incubator and mix with pipettor as previous. Add 100 μl from each well of Media Plate to corresponding well in Cell Plate. Place Cell Plate in incubator overnight.
Perform ELISA to determine levels of secreted Aβ 1-40.
After 16 h incubation, spin Cell Plate for 8 min at 1200 rpm. The primary reading of Aβ 1-40 levels is done using PerkinElmer AlphaLISA technology. Follow the manufacturer's protocol for performing AlphaLISA in a white ½ area Optiwell plate using Row 12 for peptide standard (1:2 dilutions, starting at 15 ng/ml). Data are acquired using PerkinElmer Fusion-Alpha FP-HT, Alpha protocol (Count Time 0.6s, Count Time Ratio 30%:70%).
Export data from Fusion using Columnar Report format into a separate file for each plate. Upload data into Activity Base using RIA-DOSE-RESPONSE protocol (Version 1). Data from at least eight doses were fitted to a four parameter logistical model using XLfit software to determine potency.

SMILES	IC50 [nM]
COC1CCC2(CC1)Cc1ccc(-c3cccnc3)cc1C21CC(=O)N(C)C(N)=N1 (stereo not drawn) [Compound 59, 2″-amino-1′″-methyl-6-(pyridin-3-yl)-1″H-spiro[spiro[2,3-dihydro-indene-2,1′-(trans-4-methoxycyclohexane)]-1,4′-pyrimidin]-6″(5″H)-one]	< 500
CN1C(=O)C2(N=C1N)c1cc(Br)ccc1CC21CCc2ccccc2CC1 (stereo not drawn) [Compound 56]	< 5000
CN1OC2(N=C1N)c1cc(-c3cccc(C#N)c3)ccc1CC21CCc2cc(F)ccc2C1 (stereo not drawn) [Compound 43]	< 5000
CO[C@H]1CC[C@]2(CC1)Cc1ccc(-c3cccc(C#N)c3)cc1C21CC(=O)N(C)C(N)=N1 (stereo partly drawn) [Compound 58, 3-(2″-amino-1′″-methyl-6″-oxo-5″,6″-dihydro-1″H-spiro[spiro[2,3-dihydro-indene-2,1′-(trans-4-methoxycyclohexane)]-1,4′-pyrimidine]-6-yl)benzonitrile]	< 100
CN1C(=O)C2(N=C1N)c1cc(-c3cc(F)cc(Cl)c3)ccc1CC21CCc2ccccc2CC1 (stereo not drawn) [Compound 26]	< 5000
CN1OC2(N=C1N)c1cc(-c3cccc(C#N)c3)ccc1CC21Cc2ccccc2C1 (stereo not drawn) [Compound 40]	< 5000
CN1OC2(N=C1N)c1cc(Cl)ccc1CC21CCc2ccccc2CC1 (stereo not drawn) [Compound 30]	< 5000
CN1OC2(N=C1N)c1cc(-c3cccc(C#N)c3)ccc1CC21C=CC(c2ccccc2)C1 (stereo not drawn) [Compound 53]	< 50000
CN1C(=O)C2(N=C1N)c1cc(-c3cccc(C#N)c3)ccc1CC21CCc2ccccc2CC1 (stereo not drawn) [Compound 29]	< 500
CN1OC2(N=C1N)c1ccccc1CC21CCc2ccccc2CC1 (stereo not drawn) [Compound 35]	< 1000
